The series concerns RhoB promoter. The series can be described thus: RhoB promoter transcriptional activity (luciferase reporter) in human cancer cell lines A-549, Panc-1, C33A. The class given is cell-based. Conditions: PANC-1 and A-549 cells expressing mutated K-Ras. The source says: Gene Constructs and RhoB Promoter Transcriptional Activity Assay. Constitutively active H-Ras61L, K-RasV12, N-RasV12, and dominant negative […]-Ras were kind gifts from Dr. Channing Der (University of North Carolina) (Khosravi-Far, R. et al., Mol Cell Biol, 1995, 15:6443-53; Quilliam, L. A. et al., Mol Cell Biol, 1994, 14:1113-21). Wild-type RhoA and RhoB were subcloned into hemaglutinin (HA)-tagged pcDNA3 (INVITROGEN). The orientation and the sequences of these genes were confirmed by DNA sequencing facilities at the H. Lee Moffitt Cancer Center, Tampa, Fla. RhoB promoter construct pGEI was kindly provided by Dr Y. Monden (Banyu Tsukuba Research, Japan) (Nakamura et al., 1996). pCMV-β-galactosidase vector was purchased from INVITROGEN. The plasmid containing CA-, DN-PI3K, Mek and Akt were kindly provided by Dr. Julie Y. Djeu (H. Lee Moffitt Cancer and Research Institute, Tampa, Fla.) (Jiang, K. et al., Blood, 2003, 101:236-44). β-galactosidase activity and luciferase assay kits were purchased from PROMEGA Corporation, Madison, Wis. The serum response element (SRE) reporter was provided by Dr. Richard Jove, H. Lee Moffitt Cancer and Research Institute, Tampa, Fla. […] Richard Jove, Oncology program, H. Lee Moffitt Cancer and Research Institute, Tampa, Fla. […] Human EGFR, ErbB2 cDNA construct were kindly provided by Dr. Noreen Luetteke, H. Lee Moffitt Cancer and Research Institute, Tampa, Fla. (Luetteke, N. C. et al., Genes Dev, 1994, 8:399-413). DNA transfection was performed with the standard lipofectamine protocol (INVITROGEN). Briefly, cells were plated in 60-mm plates, pGEI plasmid was used at 2 μg per plate, whereas all the other plasmids were used at 0.1-1.0 μg per plate. After transfection the cells were grown for another 36-48 h. Cells were then washed twice with PBS and lyzed in Promega Passive Lysis Buffer. Aliquots of the lysates were then used to measure the luciferase and β-galactosidase activities. The luciferase values were first divided by β-galactosidase values. The RhoB promoter transcriptional activity was determined by dividing the luciferase/β-Gal values from oncogene-transfected cells by those from pcDNA3-transfected cells. […] All the samples were performed in triplicate and the averages of 3 independent experiments were reported here. Proteins that induce malignant transformation and those that suppress tumorigenesis most likely antagonize each other's functions. […] Du, W. et al., Mol Cell Biol, 1999, 19:1831-40; Du, W. and Prendergast, G. C., Cancer Res, 1999, 59:5492-6). An objective of the experiments described herein was to determine whether oncogenes that are prevalent in human cancers suppress RhoB expression, and whether RhoB antagonizes the ability of these oncogenes to induce malignant transformation. To this end, the effects of several oncogenes on RhoB promoter transcriptional activity were first evaluated. NIH3T3 cells and human cancer cell lines derived from lung (A-549), pancreatic (Panc-1) and cervical (C33A) tumors were transiently transfected with pcDNA3 empty vectors or pcDNA3 constructs containing various oncogenes along with full length RhoB promoter firefly luciferase reporter and SRE-renilla luciferase reporter as well as a β-gal reporter for controlling transfection efficiency as described in the Materials and Methods section.
(In general: Reporter assays use an easily measured gene product as a stand-in for the process of interest.)

Turning to `O=c1[nH]cc(F)c(=O)[nH]1` [5-FU, 5-fluorouracil], the “5-FU induction of RhoB promoter activity” value was “both cell lines are resistant to 5-FU”.

Source of the values: patent publication US7629310B2, “RhoB as a suppressor of cancer cell growth, cell transformation, and metastasis” (University of South Florida, priority 2000, dated 2009).
